According to patent US9662377B2, “Therapeutic composition for treatment of glioblastoma” (REGENTS OF THE UNIVERSITY OF MINNESOTA, priority 2010, dated 2017):

System: PBMCs from CMV sera-positive donors
Test: CMV assay (pp65-dependent IFNγ production)
Type: cell-based, human
Experimental: 5×10^5 HLA-A2^+ iDCs were pulsed with 100 μg of tumor lysates derived in 5% or 20% O2+/−10 μg of pp65 HLA-A2-restricted CMV antigen (NLVPMVATV) (SEQ ID NO: 15) and matured as described in the methods section. Following maturation, DCs were washed 3 times, and 5×10^5 PBMCs from CMV sera-positive donors were added to DCs. CMV sera-negative PBMCs were used as a negative control. Cells were incubated for 48 h, and supernatant was analyzed by cytometric bead array (BD Biosciences) for IFNγ. Cells were cultured for an additional 24 h, stained with anti-CD8, pp65 pentamer (ProImmune), and intracellularly stained for IFNγ production.
The inventors established an assay to determine if TLs altered DC-mediated CD8 T cell priming from a defined antigen not present in the TLs. To accomplish this, TLs were mixed with pp65 peptide, a specific marker antigen with well-defined CD8 T cell responses. […] Soluble IFNγ in the tissue culture supernatant was quantified as a measure of CD8 T cell activation. There was a background of […] of IFNγ detected in the supernatant when TLs were pulsed in the absence of pp65, possibly due to activation of T cells or natural killer (NK) cells irrespective of pp65 (FIG. 8B).

NLVPMVATV [pp65] was tested, and the “Response of sera-negative donor PBMCs” value (CMV sera-negative donor PBMCs) was “did not respond” and the “IFNγ level above background” value (sera-positive donor PBMCs primed with pp65 alone (no TLs)) was 2-4 fold.
